34 molecules from patent publication US20090163546A1, “DIACYLGLYCEROL ACYLTRANSFERASE INHIBITORS” (priority 2007, published 2009) can be followed below.

This test deals with DGAT. The test is described as follows: DGAT Phospholipid FlashPlate Assay. Type of test: biochemical. The settings on record: DGAT pellet, DAG-coated PL-FlashPlate, 14C-Pal-CoA, 37° C. for 1 hour; read-out: Activity in DGAT Phospholipid FlashPlate Assay (A = IC50 < 0.10 μM, B = IC50 ≧ 0.10 μM). As to the method: Materials for the assay were: PL-FlashPlate: Phospholipid FlashPlates from PerkinElmer, catalog number SMP108; DAG (1,2-Dioleoyl-sn-glycerol) 10 mM suspended in water containing 0.1% Triton X-100; ^14C-Pal-CoA (palmitoyl coenzyme A, [palmitoyl-1-^14C]) from PerkinElmer, catalog number NEC-555 with a specific activity of 55 mCi/mmol; and DGAT pellet, with a protein concentration of 9.85 mg/ml.
Aqueous buffers were prepared or purchased as follows: The coating buffer (CB) was purchased from PerkinElmer, catalog number SMP900A; the reaction buffer (RB) was 50 mM Tris-HCl, pH 7.5, 100 mM NaCl, 0.01 % BSA in water; the washing buffer (WB) is 50 mM Tris-HCl, pH 7.5, 100 mM NaCl, 0.05 % deoxycholic acid sodium salt in water; the dilution buffer (DB) was 50 mM Tris-HCl, pH 7.5, 100 mM NaCl, 1 mM EDTA, 0.2% Triton X-100 in water.
1,2-Dioleoyl-sn-glycerol (DAG, 10 mmoles) was diluted to 500 μM with coating buffer (CB). The diluted DAG solution was then added to 384-well PL-FlashPlates at 60 μl per well, and incubated at room temperature for 2 days. The coated plates were then washed twice with washing buffer (WB) before use. Test compounds were serial diluted to 2000, 666.7, 222.2, 74.1, 24.7, 8.2, 2.7 and 0.9 μM in 100% DMSO. Diluted compound were further diluted 10 fold with reaction buffer (RB). ^14C-Pal-CoA was diluted to 8.3 μM with RB. The DGAT pellet was diluted to 0.13 mg protein/ml with dilution buffer (DB) immediately before it was added to the PL-FlashPlates to start the reaction. 20 μl of the RB-diluted compounds (or 10% DMSO in RB for Total and Blank), 15 μl of RB diluted 14C-Pal-CoA and 15 μl of DB diluted DGAT pellet (DB without DGAT for Blanks) were transferred to each well of the PL-FlashPlates. The reaction mixtures were incubated at 37° C. for 1 hour. The reactions were stopped by washing 3 times with WB. Plates were sealed with Top-seal and read on a Topcount instrument.
Calculation of IC50: The IC50 values for each compound were generated using an Excel template. The Topcount rpm readings of Total and Blank were used as 0% and 100% inhibition. The percent inhibition values of reactions in the presence of compounds were calculated, and plotted against compound concentrations. All data were fitted into a Dose Response One Site model (4 parameter logistic model) as the following:
(A+((B−A)/(1+((x/C)̂D)))),
with A and B as the bottom and top of the curve ([…]), respectively, and C as IC50 and D as Hill Coefficient of the compound.
`COc1ccc(Cl)cc1NC(=O)Nc1ccc2c(c1)c(=O)[nH]n2Cc1ccccc1` [Example 1, 1-(1-Benzyl-3-oxo-2,3-dihydro-1H-indazol-5-yl)-3-(5-chloro-2-methoxy-phenyl)-urea]: the IC50 is no less than 100 nM. For `CCOc1ccccc1NC(=O)Nc1ccc2c(c1)c(=O)[nH]n2Cc1ccccc1` [Example 2, 1-(1-Benzyl-3-oxo-2,3-dihydro-1H-indazol-5-yl)-3-(2-ethoxy-phenyl)-urea], the concentration for half-maximal inhibition (IC50) was no less than 100 nM.

Take `COc1ccccc1NC(=O)Nc1ccc2c(c1)c(=O)[nH]n2Cc1ccccc1` [Example 3, 1-(1-Benzyl-3-oxo-2,3-dihydro-1H-indazol-5-yl)-3-(2-methoxy-phenyl)-urea]: the IC50 is no less than 100 nM.

Consider `CCCn1[nH]c(=O)c2cc(NC(=O)Nc3ccccc3OC(F)(F)F)ccc21` [Example 4, 1-(3-Oxo-1-propyl-2,3-dihydro-1H-indazol-5-yl)-3-(2-trifluoromethoxy-phenyl)-urea], for which the IC50 is no less than 100 nM.

Consider `CCCCc1ccc(NC(=O)Nc2ccc3c(c2)c(=O)[nH]n3CCC)cc1` [Example 5, 1-(4-Butyl-phenyl)-3-(3-oxo-1-propyl-2,3-dihydro-1H-indazol-5-yl)-urea], for which the IC50 was no less than 100 nM. `CCCn1[nH]c(=O)c2cc(NC(=O)Nc3cc(C)ccc3OC)ccc21` [Example 6, 1-(2-Methoxy-5-methyl-phenyl)-3-(3-oxo-1-propyl-2,3-dihydro-1H-indazol-5-yl)-urea]: the IC50 was no less than 100 nM. Regarding `CCCn1[nH]c(=O)c2cc(NC(=O)Nc3cc(Cl)ccc3OC)ccc21` [Example 7, 1-(5-Chloro-2-methoxy-phenyl)-3-(3-oxo-1-propyl-2,3-dihydro-1H-indazol-5-yl)-urea], the IC50 was less than 100 nM.

Consider `CCCn1[nH]c(=O)c2cc(NC(=O)Nc3ccccc3C(C)C)ccc21` [Example 8, 1-(2-Isopropyl-phenyl)-3-(3-oxo-1-propyl-2,3-dihydro-1H-indazol-5-yl)-urea], for which the IC50 was no less than 100 nM.

As for `CCCn1[nH]c(=O)c2cc(NC(=O)Nc3ccc(Cl)c(Cl)c3)ccc21` [Example 9, 1-(3,4-Dichloro-phenyl)-3-(3-oxo-1-propyl-2,3-dihydro-1H-indazol-5-yl)-urea], the IC50 is less than 100 nM. With `CCCn1[nH]c(=O)c2cc(NC(=O)Nc3ccccc3CC)ccc21` [Example 10, 1-(2-Ethyl-phenyl)-3-(3-oxo-1-propyl-2,3-dihydro-1H-inidazol-5-yl)-urea] the figure was less than 100 nM; with `CCCn1[nH]c(=O)c2cc(NC(=O)Nc3cc(Cl)ccc3Cl)ccc21` [Example 11, 1-(2,5-Dichloro-phenyl)-3-(3-oxo-1-propyl-2,3-dihydro-1H-indazol-5-yl)-urea], no less than 100 nM. `CCCn1[nH]c(=O)c2cc(NC(=O)Nc3ccc(Cl)cc3Cl)ccc21` [Example 12, 1-(2,4-Dichloro-phenyl)-3-(3-oxo-1-propyl-2,3-dihydro-1H-indazol-5-yl)-urea]: the IC50 is no less than 100 nM. Take `CCCn1[nH]c(=O)c2cc(NC(=O)Nc3ccc(C(F)(F)F)cc3)ccc21` [Example 13, 1-(3-Oxo-1-propyl-2,3-dihydro-1H-indazol-5-yl)-3-(4-trifluoromethyl-phenyl)-urea]: the IC50 was no less than 100 nM. `CCCn1[nH]c(=O)c2cc(NC(=O)Nc3ccccc3)ccc21` [Example 14, 1-(3-Oxo-1-propyl-2,3-dihydro-1H-indazol-5-yl)-3-phenyl-urea]: the 50% inhibitory concentration (IC50) was no less than 100 nM. For the molecule `CCCn1[nH]c(=O)c2cc(NC(=O)Nc3cccc(Cl)c3)ccc21` [Example 15, 1-(3-Chloro-phenyl)-3-(3-oxo-1-propyl-2,3-dihydro-1H-indazol-5-yl)-urea], the IC50 was no less than 100 nM. With `CCCn1[nH]c(=O)c2cc(NC(=O)Nc3cccc(C)c3)ccc21` [Example 16, 1-(3-Oxo-1-propyl-2,3-dihydro-1H-indazol-5-yl)-3-m-tolyl-urea] the figure was no less than 100 nM; with `CCCn1[nH]c(=O)c2cc(NC(=O)Nc3cccc(F)c3)ccc21` [Example 17, 1-(3-Fluoro-phenyl)-3-(3-oxo-1-propyl-2,3-dihydro-1H-indazol-5-yl)-urea], no less than 100 nM; with `CCCn1[nH]c(=O)c2cc(NC(=O)Nc3ccc(F)cc3F)ccc21` [Example 18, 1-(2,4-Difluoro-phenyl)-3-(3-oxo-1-propyl-2,3-dihydro-1H-indazol-5-yl)-urea], no less than 100 nM. With `CCCn1[nH]c(=O)c2cc(NC(=O)Nc3cccc(Br)c3)ccc21` [Example 19, 1-(3-Bromo-phenyl)-3-(3-oxo-1-propyl-2,3-dihydro-1H-indazol-5-yl)-urea] the figure was no less than 100 nM. For `CCCn1[nH]c(=O)c2cc(NC(=O)Nc3ccccc3OC)ccc21` [Example 20, 1-(2-Methoxy-phenyl)-3-(3-oxo-1-propyl-2,3-dihydro-1H-indazol-5-yl)-urea] the value was no less than 100 nM; for `CCCn1[nH]c(=O)c2cc(NC(=O)Nc3ccccc3Cl)ccc21` [Example 21, 1-(2-Chloro-phenyl)-3-(3-oxo-1-propyl-2,3-dihydro-1H-indazol-5-yl)-urea], no less than 100 nM. For the molecule `CCCn1[nH]c(=O)c2cc(NC(=O)Nc3ccccc3F)ccc21` [Example 22, 1-(2-Fluoro-phenyl)-3-(3-oxo-1-propyl-2,3-dihydro-1H-indazol-5-yl)-urea], the IC50 was no less than 100 nM.

As for `COc1c(Cl)cccc1NC(=O)Nc1ccc2c(c1)c(=O)[nH]n2Cc1ccccc1` [Example 23, 1-(1-Benzyl-3-oxo-2,3-dihydro-1H-indazol-5-yl)-3-(3-chloro-2-methoxy-phenyl)-urea], the IC50 is no less than 100 nM. As for `CCOC(=O)Cn1[nH]c(=O)c2cc(NC(=O)Nc3ccccc3CC)ccc21` [Example 24, {5-[3-(2-ethyl-phenyl)-ureido]-3-oxo-2,3-dihydro-indazol-1-yl}-acetic acid ethyl ester], the IC50 was no less than 100 nM. For `CCc1ccccc1NC(=O)Nc1ccc2c(c1)c(=O)[nH]n2CCOCCOC` [Example 25, 1-(2-ethyl-phenyl)-3-{1-[2-(2-methoxy-ethoxy)-ethyl]-3-oxo-2,3-dihydro-1H-indazol-5-yl}-urea] the value was no less than 100 nM; for `CCc1ccccc1NC(=O)Nc1ccc2c(c1)c(=O)[nH]n2CCOC` [Example 26, 1-(2-ethyl-phenyl)-3-[1-(2-methoxy-ethyl)-3-oxo-2,3-dihydro-1H-indazol-5-yl]-urea], no less than 100 nM. For `CCCn1[nH]c(=O)c2cc(NC(=O)Nc3cccc4cccnc34)ccc21` [Example 27, 1-(3-Oxo-1-propyl-2,3-dihydro-1H-indazol-5-yl)-3-quinolin-8-yl-urea] the value was less than 100 nM; for `CCCn1[nH]c(=O)c2cc(NC(=O)Nc3ccccc3N3CCCCC3)ccc21` [Example 28, 1-(3-Oxo-1-propyl-2,3-dihydro-1H-indazol-5-yl)-3-(2-piperidin-1-yl-phenyl)-urea], no less than 100 nM. With `CCCn1[nH]c(=O)c2cc(NC(=O)Nc3ccccc3C(C)CC)ccc21` (stereo not shown) [Example 29, 1-(2-sec-Butyl-phenyl)-3-(3-oxo-1-propyl-2,3-dihydro-1H-indazol-5-yl)-urea] the figure was no less than 100 nM. `O=C(Nc1ccc2c(c1)c(=O)[nH]n2Cc1ccccc1)Nc1ccccc1N1CCCCC1` [Example 30, 1-(1-Benzyl-3-oxo-2,3-dihydro-1H-indazol-5-yl)-3-(2-piperidin-1-yl-phenyl)-urea]: the half-inhibitory concentration (IC50) was no less than 100 nM. With `C#Cc1cccc(NC(=O)Nc2ccc3c(c2)c(=O)[nH]n3CCC)c1` [Example 31, 1-(3-Ethynyl-phenyl)-3-(3-oxo-1-propyl-2,3-dihydro-1H-indazol-5-yl)-urea], the 50% inhibitory concentration (IC50) is no less than 100 nM.

In the case of `CCCn1[nH]c(=O)c2cc(NC(=O)Nc3cccc(C(F)(F)F)c3)ccc21` [Example 32, 1-(3-Oxo-1-propyl-2,3-dihydro-1H-indazol-5-yl)-3-(3-trifluoromethyl-phenyl)-urea], the IC50 was no less than 100 nM. For `CC(C)Oc1cccc(NC(=O)Nc2ccc3c(c2)c(=O)[nH]n3Cc2ccccc2)c1` [Example 33, 1-(1-Benzyl-3-oxo-2,3-dihydro-1H-indazol-5-yl)-3-(3-isopropoxy-phenyl)-urea] the value was no less than 100 nM.

As to `O=C(Nc1cccc(C(F)(F)F)c1)Nc1ccc2c(c1)c(=O)[nH]n2Cc1ccccc1` [Example 34, 1-(1-Benzyl-3-oxo-2,3-dihydro-1H-indazol-5-yl)-3-(3-trifluoromethyl-phenyl)-urea], the half-inhibitory concentration (IC50) is no less than 100 nM.
